Test: xn = mol fraction of the nth substance listed
Settings: Liquid, Vibrating tube method

c1ccc2sccc2c1 [benzo[b]thiophene] + CCCCCC
Settings	mass density [kg/m3]
312.99 K, 1009 kPa, x2 = 0.2588	1009
312.99 K, 2023 kPa, x2 = 0.2588	1009.7
312.99 K, 3016 kPa, x2 = 0.2588	1010.5
312.99 K, 4029 kPa, x2 = 0.2588	1011.2
312.99 K, 5004 kPa, x2 = 0.2588	1011.9
312.99 K, 6021 kPa, x2 = 0.2588	1012.6
312.99 K, 7031 kPa, x2 = 0.2588	1013.3
312.99 K, 8005 kPa, x2 = 0.2588	1014
312.99 K, 9022 kPa, x2 = 0.2588	1014.8
312.99 K, 10016 kPa, x2 = 0.2588	1015.4
312.99 K, 11004 kPa, x2 = 0.2588	1016.1
312.99 K, 12015 kPa, x2 = 0.2588	1016.8
312.99 K, 13015 kPa, x2 = 0.2588	1017.5
312.99 K, 14003 kPa, x2 = 0.2588	1018.2
312.99 K, 15011 kPa, x2 = 0.2588	1018.9
312.99 K, 16003 kPa, x2 = 0.2588	1019.5
312.99 K, 17010 kPa, x2 = 0.2588	1020.2
312.99 K, 18002 kPa, x2 = 0.2588	1020.9
312.99 K, 19029 kPa, x2 = 0.2588	1021.5
312.99 K, 20017 kPa, x2 = 0.2588	1022.2
313 K, 1011 kPa, x2 = 0.0629	1112.7
313 K, 2027 kPa, x2 = 0.0629	1113.3
313 K, 3046 kPa, x2 = 0.0629	1113.9
313 K, 4018 kPa, x2 = 0.0629	1114.5
313 K, 5014 kPa, x2 = 0.0629	1115.2
313 K, 6016 kPa, x2 = 0.0629	1115.7
313 K, 7014 kPa, x2 = 0.0629	1116.3
313 K, 8008 kPa, x2 = 0.0629	1116.9
313 K, 9013 kPa, x2 = 0.0629	1117.6
313 K, 10003 kPa, x2 = 0.0629	1118.1
313 K, 11005 kPa, x2 = 0.0629	1118.7
313 K, 12017 kPa, x2 = 0.0629	1119.3
313 K, 13017 kPa, x2 = 0.0629	1119.9
313 K, 14023 kPa, x2 = 0.0629	1120.5
313 K, 15024 kPa, x2 = 0.0629	1121
313 K, 16016 kPa, x2 = 0.0629	1121.6
313 K, 17014 kPa, x2 = 0.0629	1122.3
313 K, 18019 kPa, x2 = 0.0629	1122.8
313 K, 19014 kPa, x2 = 0.0629	1123.4
313 K, 20000 kPa, x2 = 0.0629	1124
313.11 K, 1023 kPa, x2 = 0.9432	669
313.11 K, 2023 kPa, x2 = 0.9432	670
313.11 K, 3037 kPa, x2 = 0.9432	671
313.11 K, 4019 kPa, x2 = 0.9432	672.2
313.11 K, 5025 kPa, x2 = 0.9432	673.3
313.11 K, 6058 kPa, x2 = 0.9432	674.4
313.11 K, 7008 kPa, x2 = 0.9432	675.5
313.11 K, 8047 kPa, x2 = 0.9432	676.6
313.11 K, 9025 kPa, x2 = 0.9432	677.6
313.11 K, 10040 kPa, x2 = 0.9432	678.6
313.11 K, 11000 kPa, x2 = 0.9432	679.6
313.11 K, 12016 kPa, x2 = 0.9432	680.7
313.11 K, 13019 kPa, x2 = 0.9432	681.6
313.11 K, 14016 kPa, x2 = 0.9432	682.6
313.11 K, 15029 kPa, x2 = 0.9432	683.6
313.11 K, 16024 kPa, x2 = 0.9432	684.5
313.11 K, 17011 kPa, x2 = 0.9432	685.5
313.11 K, 18015 kPa, x2 = 0.9432	686.4
313.11 K, 19046 kPa, x2 = 0.9432	687.4
313.11 K, 20016 kPa, x2 = 0.9432	688.2
313.13 K, 1017 kPa, x2 = 0.7491	761.8
313.13 K, 2027 kPa, x2 = 0.7491	762.9
313.13 K, 3031 kPa, x2 = 0.7491	764
313.13 K, 4039 kPa, x2 = 0.7491	764.9
313.13 K, 5021 kPa, x2 = 0.7491	765.9
313.13 K, 6027 kPa, x2 = 0.7491	766.9
313.13 K, 7021 kPa, x2 = 0.7491	767.9
313.13 K, 8054 kPa, x2 = 0.7491	768.9
313.13 K, 9007 kPa, x2 = 0.7491	769.8
313.13 K, 10018 kPa, x2 = 0.7491	770.7
313.13 K, 11018 kPa, x2 = 0.7491	771.6
313.13 K, 12036 kPa, x2 = 0.7491	772.6
313.13 K, 13021 kPa, x2 = 0.7491	773.5
313.13 K, 14007 kPa, x2 = 0.7491	774.3
313.13 K, 15006 kPa, x2 = 0.7491	775.2
313.13 K, 16012 kPa, x2 = 0.7491	776
313.13 K, 17016 kPa, x2 = 0.7491	776.9
313.13 K, 18000 kPa, x2 = 0.7491	777.8
313.13 K, 19017 kPa, x2 = 0.7491	778.6
313.13 K, 20030 kPa, x2 = 0.7491	779.5
313.15 K, 1025 kPa, x2 = 0.4495	910.7
313.15 K, 2010 kPa, x2 = 0.4495	911.5
313.15 K, 3028 kPa, x2 = 0.4495	912.4
313.15 K, 4011 kPa, x2 = 0.4495	913.2
313.15 K, 5013 kPa, x2 = 0.4495	914
313.15 K, 6021 kPa, x2 = 0.4495	914.8
313.15 K, 7010 kPa, x2 = 0.4495	915.6
313.15 K, 8033 kPa, x2 = 0.4495	916.4
313.15 K, 9029 kPa, x2 = 0.4495	917.2
313.15 K, 10015 kPa, x2 = 0.4495	918
313.15 K, 11018 kPa, x2 = 0.4495	918.8
313.15 K, 12012 kPa, x2 = 0.4495	919.5
313.15 K, 13010 kPa, x2 = 0.4495	920.3
313.15 K, 14022 kPa, x2 = 0.4495	921
313.15 K, 15019 kPa, x2 = 0.4495	921.8
313.15 K, 16008 kPa, x2 = 0.4495	922.6
313.15 K, 17018 kPa, x2 = 0.4495	923.3
313.15 K, 18027 kPa, x2 = 0.4495	924.1
313.15 K, 19006 kPa, x2 = 0.4495	924.8
313.15 K, 20006 kPa, x2 = 0.4495	925.5
322.05 K, 1026 kPa, x2 = 0.4495	901.9
322.05 K, 2020 kPa, x2 = 0.4495	902.8
322.05 K, 3015 kPa, x2 = 0.4495	903.7
322.05 K, 4003 kPa, x2 = 0.4495	904.5
322.05 K, 5014 kPa, x2 = 0.4495	905.4
322.05 K, 6021 kPa, x2 = 0.4495	906.3
322.05 K, 7015 kPa, x2 = 0.4495	907.2
322.05 K, 8009 kPa, x2 = 0.4495	908
322.05 K, 9028 kPa, x2 = 0.4495	908.9
322.05 K, 10013 kPa, x2 = 0.4495	909.7
322.05 K, 11021 kPa, x2 = 0.4495	910.5
322.05 K, 12023 kPa, x2 = 0.4495	911.3
322.05 K, 13008 kPa, x2 = 0.4495	912.1
322.05 K, 14021 kPa, x2 = 0.4495	913
322.05 K, 15012 kPa, x2 = 0.4495	913.7
322.05 K, 16018 kPa, x2 = 0.4495	914.5
322.05 K, 17012 kPa, x2 = 0.4495	915.3
322.05 K, 18012 kPa, x2 = 0.4495	916.1
322.05 K, 19007 kPa, x2 = 0.4495	916.9
322.05 K, 20015 kPa, x2 = 0.4495	917.7
322.89 K, 1017 kPa, x2 = 0.2588	1000
322.89 K, 2023 kPa, x2 = 0.2588	1000.8
322.89 K, 3021 kPa, x2 = 0.2588	1001.5
322.89 K, 4016 kPa, x2 = 0.2588	1002.3
322.89 K, 5026 kPa, x2 = 0.2588	1003.1
322.89 K, 6030 kPa, x2 = 0.2588	1003.8
322.89 K, 7028 kPa, x2 = 0.2588	1004.6
322.89 K, 8018 kPa, x2 = 0.2588	1005.3
322.89 K, 9014 kPa, x2 = 0.2588	1006
322.89 K, 10021 kPa, x2 = 0.2588	1006.7
322.89 K, 11005 kPa, x2 = 0.2588	1007.5
322.89 K, 12022 kPa, x2 = 0.2588	1008.2
322.89 K, 13013 kPa, x2 = 0.2588	1008.9
322.89 K, 14012 kPa, x2 = 0.2588	1009.6
322.89 K, 15017 kPa, x2 = 0.2588	1010.3
322.89 K, 16016 kPa, x2 = 0.2588	1011
322.89 K, 17002 kPa, x2 = 0.2588	1011.7
322.89 K, 18014 kPa, x2 = 0.2588	1012.4
322.89 K, 19024 kPa, x2 = 0.2588	1013.1
322.89 K, 20016 kPa, x2 = 0.2588	1013.8
